Measurements: patent US10842797B2, “Nutraceutical co-crystal compositions” (UNIVERSITY OF SOUTH FLORIDA, priority 2007, dated 2020)

Description: Solubility profiles for co-crystals were determined by UV-vis spectroscopy (Perkin Elmer-Lambda 25 UV-vis spectrometer, 400 nm).
The solubility of KP10 in 1:1 ethanol/water (V/V %) was determined by UV-vis spectroscopy, with a wavelength of 360 nm.
The solubility of KP15 in 1:1 ethanol/water (V/V %) was determined by UV-vis spectroscopy, with a wavelength of 300 nm.

Substance: Co-Crystal of Hesperetin and Iso-Nicotinamide [KP15]
- increase in the solubility of hesperetin in the co-crystal when compared to pure hesperetin: approximately 12 fold

Substance: Co-Crystal of Quercetin and Iso-Nicotinamide [KP10]
- increase in the solubility of quercetin in the co-crystal when compared to quercetin dehydrate: ~6 fold
